Key:
[1] = test system: E. coli; experiment: Titration of substrate-bound microorganism with Reichardt's dye solution; set-up: species or system Escherichia coli; conditions: 160 mg in 10 ml acetonitrile, 10 μl aliquots; 100 μl of 10^7 CFU/ml on towel
[2] = Bleach indicator test; format: physicochemical; conditions: mixture with TMB coated on SCOTT towel
[3] = test system: measles; experiment: Virus detection with Reichardt's dye-coated stickers
[4] = test system: S. aureus; experiment: Titration of substrate-bound microorganism with Reichardt's dye solution; set-up: species or system Staphylococcus aureus
Method: On a SCOTT® paper towel was placed 100 μl each of serially diluted S. aureus bacterial suspensions. […] This was repeated on each spot corresponding to where different concentrations of bacteria were placed.

[5] = test system: microbes on computer keyboard; experiment: Indicator spray on computer keyboard
Method: Reichardt's dye was dissolved in isopropanol (160 mg in 10 mL of isopropanol) and attached to an aerosol-based spray device. The keyboard was then sprayed with the indicator solution (10B).

[6] = test system: bacteria in aged chicken juice; experiment: Dye solution dropped onto aged chicken juice on SCOTT paper towel (comparative examples); conditions: 100 mg suspended in 10 ml acetonitrile, dropped onto aged chicken juice on SCOTT paper towel
[7] = test system: E. coli; experiment: Dry sample testing on dye-coated towel; set-up: species or system Escherichia coli; conditions: dry colony rubbed onto pre-moistened dye coated SCOTT towel
Method: A test using the Reichardt's dye coated paper towel with a “dry” bacteria sample, not in solution was carried out. A dry sample of a colony of E. coli bacteria lifted off an agar petri dish containing a series of growing cultures was used. This dry sample was then rubbed onto a pre-moistened dye coated SCOTT® paper towel. The area where the colony was placed and rubbed turned colorless within 1-5 seconds. This is a similar to how a wet wipe towel would be used and it performed well.

[8] = test system: E. coli; experiment: Towel coated with Reichardt's dye and TMB exposed to bacteria; set-up: species or system Escherichia coli; conditions: E. coli suspension drop-wise
[9] = test system: Rhinovirus; experiment: Virus detection with Reichardt's dye
[10] = test system: E. coli; experiment: De-colorization of Reichardt's dye-coated paper by bacteria solutions; set-up: species or system Escherichia coli; conditions: paper brush-coated with 80 mg/10 mL acetonitrile; 100 μL of 10^7 to 10^4 CFU/mL
Method: (§1) This experiment tested the ability of a surface coating of Reichardt's dye to respond to bacterial contamination. […] To this paper was added 100 μL aliquots of 10^7, 10^6, 10^5, and 10^4 CFU/mL E. coli or S. aureus solutions (8B). Water was used as a negative control. […] It was later determined that while both bacteria solutions were indeed at 10^7 CFU/mL concentrations, the actual concentration of the S. aureus solution was 7×10^7 CFU/mL compared to 1×10^7 CFU/mL for the E. coli solution.

[11] = test system: E. coli; experiment: Cyclodextrin enhancement: coated towel with bacteria; set-up: species or system Escherichia coli; conditions: hydroxypropyl-beta-cyclodextrin coated towel
Method: A SCOTT® paper towel was first coated with hydroxypropyl-beta-cyclodextrin (from Cerestar International, Hammond, Ind., USA) in solution in water (1 gram in 20 ml) by dipping and air-drying at ambient temperature. When dry the coated paper towel was treated with a solution of Reichardt's dye in isopropanol (1 weight percent) and allowed to air-dry. The dried towel was a purple/blue in color. Here the cyclodextrin hinders the crystallization of the dye allowing a more vivid color of the dye to occur on the paper towel. This coated towel was used in a test with gram-negative bacteria (E. coli) and found to turn colorless in less than 5 seconds when an aliquot of 100 microliters of media containing 10,000 CFU/ml was applied to the towel. […] Thus by hindering the dye from crystallizing, the dye is believed to be present on the substrate as single molecules and therefore the sensitivity of the dye to bacteria levels increases. The inventors believe that by careful use of a coating (e.g. cyclodextrin) on the towel a mono-molecular coating of dye will occur on the surface of the substrate and maximum sensitivity will occur.

[12] = test system: bacteria in aged chicken juice; experiment: Dried dye coating on ceramic surface with or without TWEEN 80, aged chicken juice; conditions: 80 mg/10 mL acetonitrile with 200 μL TWEEN 80, dried on ceramic, drop of aged chicken juice
Text: This solution was then used to coat a ceramic surface (FIG. 11) and allowed to air dry. […] After drying, a drop of aged chicken juice known to have a high bacterial count was placed on the each coating area (11B). […] Furthermore, the addition of TWEEN® surfactant allowed for easy removal of the dye from the surface.

[13] = test system: S. aureus; experiment: De-colorization of Reichardt's dye-coated paper and stickers by bacteria; set-up: species or system Staphylococcus aureus
Method: as §1
A sheet of paper self-adhesive stickers (Avery-Dennison) was also brush-coated with two different concentrations of Reichardt's dye solution (160 mg/10 mL acetonitrile, 80 mg/10 mL acetonitrile). The stickers were applied to the lid and latch mechanism of a Huggies® Wet Wipes box. A gloved hand was used to transfer 10^7 CFU/mL S. aureus to the surface of the stickers. […] The sticker could provide a means for easy and rapid detection of bacterial contamination for a variety of applications.

[14] = test system: bacteria from aged chicken juice; experiment: Reichardt's dye indicator spray on surfaces contaminated with aged chicken; conditions: for false-positive test: chicken broth versus aged chicken juice: 160 mg in 10 ml isopropanol
[15] = test system: Herpes Simplex Virus 1 (HSV-1); experiment: Virus detection with Reichardt's dye-coated stickers; conditions: 50-microliter droplet, 3 minutes

In the case of [O-]c1c(-c2ccccc2)cc(-[n+]2c(-c3ccccc3)cc(-c3ccccc3)cc2-c2ccccc2)cc1-c1ccccc1 [Reichardt's dye, 2,6-diphenyl-4-(2,4,6-triphenylpyridinio)-phenolate], the “Amount of Dye Required for Persistent Color” value [1] is reported as 80 µL, the “response of Reichardt's dye to dilute bleach” value [2] is reported as “de-colorizing” and the “de-colorization of sticker by undiluted virus” value [3] is reported as “less than that observed for the other viruses”. The “Amount of Dye Required for Persistent Color” value ([4]; 160 mg in 10 ml acetonitrile, 10 μl aliquots, 100 μl of 10^7 CFU/ml on towel) was 90 µL, the “de-colorization time of dye drops” value ([4]; 10 μl drops of 40 mg/10 ml acetonitrile on 100 μl serially diluted suspensions on SCOTT towel) was less than 1 s and the “de-colorization of spray on old computer keyboard” value [5] was “rapid de-colorization of the dye in certain areas”. For the same compound, the “color change on aged chicken juice (control)” value [6] was “immediately decolorized”, the “time to turn colorless” value [7] was 1 to 5 s and the “time to decolorize to a white spot” value [8] was “less than 10 seconds”. The “dye added until the color persisted” value ([9]; 80 milligrams/10 milliliters acetonitrile with or without TWEEN 80, 100-microliter drop of undiluted virus on SCOTT towel) was “approximately 9 drops”, the “lowest ten-fold dilution at which stickers changed color” value ([9]; virus diluted serially in saline, 50-microliter aliquots, 3 minutes) was 10^−6 and the de-colorization time [10] was less than 1 min. For the same compound, the “lowest bacteria concentration at which decolorization occurred” value ([11]; 1 weight percent dye in isopropanol) was 500 CFU/ml, the “time to turn colorless” value ([11]; 1 weight percent dye in isopropanol, 100 microliters of 10,000 CFU/ml) was “less than 5 seconds” and the time to decolorize ([11]; 500 CFU/ml) was no more than 15 s. For the same compound, the “de-colorization faster with TWEEN 80 surfactant than without” value [12] was 20 to 30 s, the de-colorization time ([13]; paper brush-coated with 80 mg/10 mL acetonitrile, 100 μL of 10^7 to 10^4 CFU/mL) was less than 1 min and the “de-colorization of coated stickers” value ([13]; stickers coated with 160 or 80 mg/10 mL acetonitrile, 10^7 CFU/mL transferred by gloved hand) was “rapidly de-colorized”. The “color change of indicator spray on area contacted by aged chicken” value ([14]; 160 mg in 10 mL acetonitrile, sprayed on ceramic plate) was “decolorized”, the “color change of indicator spray on contaminated doorknob” value ([14]; 160 mg in 10 mL isopropanol, plastic doorknob marked with aged chicken juice) was “de-colorization of the Reichardt's dye from blue to colorless” and the “false-positive test: chicken broth versus aged chicken juice” value ([14]; ceramic surface) was “only the side containing the aged chicken juice (and thus bacteria) was de-colorized”. The “false-positive test: chicken broth versus aged chicken juice” value ([14]; hot plate surface) was “only the side containing the aged chicken juice (and thus bacteria) was de-colorized”, the “de-colorization after cleaning guided by the spray” value ([14]; isopropanol spray, ceramic surface cleaned again with 60% ethanol antiseptic) was “no de-colorization took place” and the “de-colorization of sticker by undiluted virus” value [15] was “stronger de-colorization of the sticker than that observed for Rhinovirus and Polio virus”.

Source: patent publication US7399608B2, “Microbial detection and quantification” (Kimberly-Clark Worldwide, Inc., priority 2003, dated 2008)
